Assay results reported in patent publication US20050009837A1, “Modulators of lipid metabolism and methods of use” (City of Hope, priority 2003, published 2005).

Columns and labels:
LXRα = molecular target: T1, LXRα (Homo sapiens, UniProt Q13133); experiment: Transient transfection assay Gal-hLXRα + RXR LBD, UASGx4 TK Luc reporter, CV-1 cells; format: cell-based
T1 construct: expressed in transfected cells; host or cells: CV-1 cells
T1 sequence (Q13133 209-447 limits assumed): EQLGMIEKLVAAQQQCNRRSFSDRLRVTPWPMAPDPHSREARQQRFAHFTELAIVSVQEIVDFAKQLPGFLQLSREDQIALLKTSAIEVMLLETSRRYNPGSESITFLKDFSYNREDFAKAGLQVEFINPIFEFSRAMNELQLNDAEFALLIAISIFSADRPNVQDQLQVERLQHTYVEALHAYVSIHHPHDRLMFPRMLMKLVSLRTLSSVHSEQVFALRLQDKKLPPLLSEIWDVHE
T1 sequence (P19793 227-458 partner limits assumed): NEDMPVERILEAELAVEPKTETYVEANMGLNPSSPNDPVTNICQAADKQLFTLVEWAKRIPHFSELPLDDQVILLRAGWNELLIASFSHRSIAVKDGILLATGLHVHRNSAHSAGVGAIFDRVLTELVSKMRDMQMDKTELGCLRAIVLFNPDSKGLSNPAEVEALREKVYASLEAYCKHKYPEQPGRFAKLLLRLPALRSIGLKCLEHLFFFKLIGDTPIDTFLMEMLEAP
Description: Synthetic compounds were screened in an effort to find more specific LXR inhibitors. CV-1 cells were maintained and transfected using known methods. Forman et al., Cell 81: 687-693, 1995. CV-1 cells were transiently transfected with Gal-hLXRα, the RXR LBD, the UASGx4 TK Luc reporter and CMX-β-gal as an internal control, either in standard or in lipid-stripped serum. After transfection, cells were treated for approximately 40 hours with phenol red-free DMEM-FBS containing the indicated compounds at the following concentrations: T0901317 (100 nM), Clotrimazole (10 μM), S883417(10 μM) and S100250 (10 μM), unless otherwise specified. After exposure to ligand, the cells were harvested and assayed for luciferase and β-galactosidase activity. The luciferase activity was normalized to the internal β-galactosidase control (reporter activity).
The ability of these compounds to repress LXRα and LXRβ was compared by transfecting CV-1 cells with either the RXR LBD alone or the RXR LBD together with either Gal-LXRα or Gal-LXRβ.
Transfections were performed as described above, with increasing concentrations of Clotrimazole.

[1] = test system: SRE reporter (FAS proximal promoter); experiment: SRE reporter (FAS proximal promoter-luciferase) assay in CV-1 cells; format: cell-based
Description: Since LXR regulates SREBP-1c expression, LXR also should regulate activities downstream of SREBP-1c. To test this, CV-1 cells were transiently transfected with as in Example 6, but with the SRE or the SREm reporter, SREBP-1c-dependent reporter constructs consisting of the FAS proximal promoter linked to the luciferase gene. […] See Wang et al., Mol. Cell 3:543-553, 1999, the disclosures of which are hereby incorporated by reference. Cells then were treated as in Example 6 with the indicated compounds, Clotrimazole or 25-hydroxycholesterol (25-OH cholesterol). 25-OH cholesterol is known to repress the synthesis of SREBP-1c and is therefore used to eliminate the effects of this transcription factor on the FAS promoter (SRE).

human CAR = human CAR (Homo sapiens, UniProt Q14994); settings: cited from earlier work
Chain of human CAR (Q14994 whole entry): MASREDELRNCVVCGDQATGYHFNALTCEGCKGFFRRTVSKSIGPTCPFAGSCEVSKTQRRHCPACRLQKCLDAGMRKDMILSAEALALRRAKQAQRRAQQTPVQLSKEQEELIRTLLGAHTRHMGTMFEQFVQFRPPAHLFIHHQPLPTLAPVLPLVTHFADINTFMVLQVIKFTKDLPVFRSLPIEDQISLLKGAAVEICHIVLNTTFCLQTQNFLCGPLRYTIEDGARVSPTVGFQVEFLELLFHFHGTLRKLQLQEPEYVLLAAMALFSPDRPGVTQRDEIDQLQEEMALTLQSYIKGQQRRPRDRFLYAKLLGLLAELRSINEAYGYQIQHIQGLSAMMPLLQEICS

SREBP-1c expression = experiment: Real-time PCR of SREBP-1c expression in HepG2 cells; format: cell-based, human; settings: Clotrimazole 10 μM plus T0901317 100 nM, 24 hours
Description: Real time PCR was then performed on cDNA derived from RNA isolated form the treated HepG2 cells as follows. Real time quantitative PCR assays were performed using an Applied Biosystems 7700 sequence detector (Applied Biosystems). Each reaction mixture contained 50 ng cDNA, 1.25 pmol each forward and reverse primer, and […] 2× SYBR Green PCR master mix (Applied Biosystems) in a final volume of 25 μl. The PCR conditions were 50° C. for 2 min, 95° C. for 10 min, and 40 cycles of 95° C. for 15 sec and 60° C. for 1 min. Samples were run in duplicate for each primer pair. Expression of glyceraldehyde-3-phosphate dehydrogenase (GAPDH) was analyzed in parallel as an internal control. Each sample was normalized to GAPDH and is represented in the Figure showing the results as arbitrary units with the expression levels in untreated cells assigned a value of one. The primer sequences are as follows: human SREBP-1c forward [NT] ID NO:1); human SREBP-1c reverse [NT] ID NO:2); human GAPDH forward [NT] ID NO:3) and human GAPDH reverse [NT] ID NO:4).

mouse PXR = mouse PXR (Mus musculus, UniProt O54915); settings: cited from earlier work
Chain of mouse PXR (O54915 whole entry): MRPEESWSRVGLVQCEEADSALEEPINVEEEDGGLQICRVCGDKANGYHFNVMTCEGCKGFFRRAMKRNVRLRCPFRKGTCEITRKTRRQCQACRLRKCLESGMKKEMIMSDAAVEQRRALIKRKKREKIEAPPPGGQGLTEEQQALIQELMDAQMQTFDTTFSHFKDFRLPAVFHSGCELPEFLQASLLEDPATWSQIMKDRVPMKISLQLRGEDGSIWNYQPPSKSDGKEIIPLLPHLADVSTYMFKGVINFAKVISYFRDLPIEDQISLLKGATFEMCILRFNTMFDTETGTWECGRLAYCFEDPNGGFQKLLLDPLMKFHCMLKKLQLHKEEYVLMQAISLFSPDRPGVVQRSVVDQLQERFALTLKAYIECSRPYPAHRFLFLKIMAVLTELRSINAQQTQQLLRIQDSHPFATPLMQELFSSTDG

NIH3T3-L1 adipocytes = experiment: Triglyceride content (Nile Red) of NIH3T3-L1 cells differentiated to adipocytes; format: cell-based; settings: 7 days
Description: NIH 3T3-L1 cells were maintained in growth media consisting of Dulbecco's modified Eagle's medium (DMEM) supplemented with 10% calf bovine serum (CBS), 50 U/ml penicillin G and 50 μg/ml streptomycin sulfate. To induce NIH 3T3-L1 differentiation into adipocytes, confluent cells were transferred from their growth media to DMEM containing 10% fetal bovine serum (FBS), 5 μg/ml insulin, 0.5 mM 3-isobutyl-1-methylxanthine (IBMX) and 1 μM dexamethasone for 7 days. During the differentiation period, cells also optionally received 200 nM T0901317, 7.5 μM Clotrimazole or both.
NIH3T3-L1 cells were allowed to differentiate for 7 days in the presence of a well-established differentiation cocktail containing dexamethazole (1 μm), IBMX (0.5 mM) and insulin (5 μg/ml) in the absence or presence of T0901317 (200 nM) or Clotrimazole (7.5 μm). The cells then were fixed and stained with Nile Red, which stains triglycerides (TG) green, and DAPI to visualize nuclei (in blue). TG content of the cell reflected increased or decreased lipogenesis.

Clc1ccccc1C(c1ccccc1)(c1ccccc1)n1ccnc1 [Clotrimazole]
repression of LXRα activity (LXRα; 10 μM, approximately 40 hours, lipid-stripped serum): powerful antagonist | antagonist potency LXRα compared with LXRβ (LXRα; dose-response, FIG. 5): more potent antagonist of LXRα than LXRβ | EC50 (LXRα; dose-response, increasing concentrations, read-out: EC50 for repression of LXRα constitutive activity): ~10 µM | LXRα induction of SRE reporter activity ([1]; LXRα co-transfected (3-fold increase)): prevented this induction | LXRβ induction of SRE reporter activity ([1]; LXRβ co-expression (almost 2-fold increase)): prevented this induction | activity of reporter containing mutated SRE ([1]; SREm reporter): no significant effects | repression of SRE reporter ([1]; absence of LXR): only a weak repressive effect | activity on human CAR (human CAR): antagonizes | SREBP-1c expression compared to T0901317 alone (SREBP-1c expression): significantly reduced | activity on mouse PXR (mouse PXR): agonist | TG content compared to treatment with T0901317 alone (NIH3T3-L1 adipocytes; Clotrimazole 7.5 μm plus T0901317 200 nM): reduction in TG content | TG content compared to differentiation cocktail only (NIH3T3-L1 adipocytes; T0901317 200 nM or Clotrimazole 7.5 μm): decreased
